Measurements reported in patent EP4745137A1 (Gluetacs Therapeutics (Shanghai) Co., Ltd., priority 2023, dated 2025).

Tests used:
[1] = biological target: T1, WEE1 (Homo sapiens, UniProt P30291+Q96SW2); assay: Western-blot assay of substrate protein degradation in hPBMCs, WEE1; type: cell-based; details: 24 hours of compound treatment, 50 nM and 500 nM tested (concentration behind the class not stated)
T1 construct: endogenous in cells; host or cells: hPBMCs (Milecell Biotechnologies)

[2] = biological target: T2, IKZF1 (Homo sapiens, UniProt Q13422+Q96SW2); assay: Western-blot assay of substrate protein degradation in hPBMCs, IKZF1; type: cell-based; details: 24 hours of compound treatment, 50 nM and 500 nM tested (concentration behind the class not stated)
T2 construct: endogenous in cells; host or cells: hPBMCs (Milecell Biotechnologies)

[3] = biological target: T3, IKZF2 (Homo sapiens, UniProt Q96SW2+Q9UKS7); assay: Western-blot assay of substrate protein degradation in hPBMCs, IKZF2; type: cell-based; details: 24 hours of compound treatment, 50 nM and 500 nM tested (concentration behind the class not stated)
T3 construct: endogenous in cells; host or cells: hPBMCs (Milecell Biotechnologies)
T3 sequence (Q9UKS7 whole entry): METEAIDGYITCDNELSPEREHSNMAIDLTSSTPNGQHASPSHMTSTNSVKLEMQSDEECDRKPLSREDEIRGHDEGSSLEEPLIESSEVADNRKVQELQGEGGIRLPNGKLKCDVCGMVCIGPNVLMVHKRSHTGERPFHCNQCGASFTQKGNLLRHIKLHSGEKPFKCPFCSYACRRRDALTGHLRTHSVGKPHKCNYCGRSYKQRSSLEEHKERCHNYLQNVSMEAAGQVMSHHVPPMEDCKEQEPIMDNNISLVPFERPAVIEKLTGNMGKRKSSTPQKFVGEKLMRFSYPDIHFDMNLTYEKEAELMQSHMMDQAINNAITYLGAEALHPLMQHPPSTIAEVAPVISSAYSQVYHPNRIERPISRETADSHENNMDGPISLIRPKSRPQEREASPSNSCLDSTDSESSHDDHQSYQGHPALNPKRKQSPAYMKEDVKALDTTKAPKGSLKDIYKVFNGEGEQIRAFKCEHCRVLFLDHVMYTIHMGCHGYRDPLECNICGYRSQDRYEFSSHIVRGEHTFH
T3 sequence (Q96SW2 whole entry): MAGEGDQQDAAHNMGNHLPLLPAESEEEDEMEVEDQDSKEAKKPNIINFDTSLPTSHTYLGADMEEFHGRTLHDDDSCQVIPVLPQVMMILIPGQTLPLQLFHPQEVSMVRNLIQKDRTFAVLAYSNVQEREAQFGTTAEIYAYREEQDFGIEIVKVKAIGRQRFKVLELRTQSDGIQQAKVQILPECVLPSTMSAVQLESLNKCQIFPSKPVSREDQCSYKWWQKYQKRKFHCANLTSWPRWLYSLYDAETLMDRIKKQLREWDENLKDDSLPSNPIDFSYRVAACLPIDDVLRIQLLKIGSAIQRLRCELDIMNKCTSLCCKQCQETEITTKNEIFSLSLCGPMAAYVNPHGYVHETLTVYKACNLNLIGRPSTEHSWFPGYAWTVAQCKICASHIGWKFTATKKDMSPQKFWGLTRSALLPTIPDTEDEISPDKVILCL
T3 sequence (Q16531 whole entry partner): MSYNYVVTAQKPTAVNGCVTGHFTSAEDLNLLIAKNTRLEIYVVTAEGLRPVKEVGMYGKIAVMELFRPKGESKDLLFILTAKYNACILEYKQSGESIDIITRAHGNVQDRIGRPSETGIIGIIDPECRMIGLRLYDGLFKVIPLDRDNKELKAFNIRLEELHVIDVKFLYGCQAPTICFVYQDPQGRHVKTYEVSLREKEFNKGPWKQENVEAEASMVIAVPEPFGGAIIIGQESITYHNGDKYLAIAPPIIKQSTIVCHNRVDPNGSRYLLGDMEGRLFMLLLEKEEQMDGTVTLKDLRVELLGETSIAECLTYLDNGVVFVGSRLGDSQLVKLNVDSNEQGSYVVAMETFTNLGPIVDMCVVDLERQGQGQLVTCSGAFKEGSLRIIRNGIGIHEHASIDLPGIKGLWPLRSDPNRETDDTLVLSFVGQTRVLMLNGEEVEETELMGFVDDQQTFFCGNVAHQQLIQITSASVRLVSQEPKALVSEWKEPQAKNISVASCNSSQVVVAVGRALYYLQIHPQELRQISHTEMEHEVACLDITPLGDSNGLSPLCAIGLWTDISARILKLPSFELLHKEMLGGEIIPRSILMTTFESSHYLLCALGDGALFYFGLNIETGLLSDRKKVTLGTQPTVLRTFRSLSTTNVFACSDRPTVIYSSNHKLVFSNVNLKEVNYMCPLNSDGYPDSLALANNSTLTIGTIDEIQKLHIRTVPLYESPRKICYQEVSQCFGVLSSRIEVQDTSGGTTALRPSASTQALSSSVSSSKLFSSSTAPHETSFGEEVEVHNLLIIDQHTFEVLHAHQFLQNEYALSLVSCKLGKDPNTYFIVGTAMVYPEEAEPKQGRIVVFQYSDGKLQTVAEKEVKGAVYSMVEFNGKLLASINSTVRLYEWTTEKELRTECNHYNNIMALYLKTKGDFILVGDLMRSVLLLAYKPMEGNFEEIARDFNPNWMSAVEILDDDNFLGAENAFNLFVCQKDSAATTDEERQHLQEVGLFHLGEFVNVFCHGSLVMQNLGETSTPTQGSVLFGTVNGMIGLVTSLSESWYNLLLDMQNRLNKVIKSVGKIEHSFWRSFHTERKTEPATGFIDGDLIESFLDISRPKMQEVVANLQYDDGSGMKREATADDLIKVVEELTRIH

[4] = biological target: T4, IKZF3 (Homo sapiens, UniProt Q96SW2+Q9UKT9); assay: Western-blot assay of substrate protein degradation in hPBMCs, IKZF3; type: cell-based; details: 24 hours of compound treatment, 50 nM and 500 nM tested (concentration behind the class not stated)
T4 construct: endogenous in cells; host or cells: hPBMCs (Milecell Biotechnologies)
T4 sequence (Q9UKT9 whole entry): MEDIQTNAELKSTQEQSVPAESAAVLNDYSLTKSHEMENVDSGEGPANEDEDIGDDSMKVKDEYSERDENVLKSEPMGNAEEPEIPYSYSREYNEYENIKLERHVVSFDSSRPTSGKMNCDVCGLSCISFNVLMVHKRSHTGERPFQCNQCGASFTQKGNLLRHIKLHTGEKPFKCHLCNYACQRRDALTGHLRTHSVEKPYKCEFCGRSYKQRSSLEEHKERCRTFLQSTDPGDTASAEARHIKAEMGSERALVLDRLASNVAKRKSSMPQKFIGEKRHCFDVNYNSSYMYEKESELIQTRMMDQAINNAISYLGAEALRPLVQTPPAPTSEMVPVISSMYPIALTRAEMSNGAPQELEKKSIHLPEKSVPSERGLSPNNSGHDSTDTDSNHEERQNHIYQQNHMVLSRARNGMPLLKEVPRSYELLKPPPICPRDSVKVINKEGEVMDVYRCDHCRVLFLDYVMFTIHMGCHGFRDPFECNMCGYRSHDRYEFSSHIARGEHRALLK
T4 sequence (Q96SW2 whole entry): as the sequence (Q96SW2 whole entry) above
T4 sequence (Q16531 whole entry partner): as the sequence (Q16531 whole entry partner) above

[5] = biological target: T5, CK1α (Homo sapiens, UniProt P48729+Q96SW2); assay: Western-blot assay of substrate protein degradation in hPBMCs, CK1α; type: cell-based; details: 24 hours of compound treatment, 50 nM and 500 nM tested (concentration behind the class not stated)
T5 construct: endogenous in cells; host or cells: hPBMCs (Milecell Biotechnologies)
T5 sequence (P48729 whole entry): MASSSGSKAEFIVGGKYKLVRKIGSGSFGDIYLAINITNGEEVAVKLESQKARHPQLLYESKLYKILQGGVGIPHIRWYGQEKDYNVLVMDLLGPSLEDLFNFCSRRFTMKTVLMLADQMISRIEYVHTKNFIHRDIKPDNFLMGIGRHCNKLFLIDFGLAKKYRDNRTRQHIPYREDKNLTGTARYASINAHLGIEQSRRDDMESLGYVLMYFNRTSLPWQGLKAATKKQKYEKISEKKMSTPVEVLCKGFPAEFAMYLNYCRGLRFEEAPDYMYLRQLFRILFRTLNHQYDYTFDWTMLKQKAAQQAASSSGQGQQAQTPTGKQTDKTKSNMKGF
T5 sequence (Q96SW2 whole entry): as the sequence (Q96SW2 whole entry) above
T5 sequence (Q16531 whole entry partner): as the sequence (Q16531 whole entry partner) above

[6] = biological target: T6, GSPT1 (Homo sapiens, UniProt P15170+Q96SW2); assay: Western-blot assay of substrate protein degradation in hPBMCs, GSPT1; type: cell-based; details: 24 hours of compound treatment, 50 nM and 500 nM tested (concentration behind the class not stated)
T6 construct: endogenous in cells; host or cells: hPBMCs (Milecell Biotechnologies)
T6 sequence (P15170 whole entry): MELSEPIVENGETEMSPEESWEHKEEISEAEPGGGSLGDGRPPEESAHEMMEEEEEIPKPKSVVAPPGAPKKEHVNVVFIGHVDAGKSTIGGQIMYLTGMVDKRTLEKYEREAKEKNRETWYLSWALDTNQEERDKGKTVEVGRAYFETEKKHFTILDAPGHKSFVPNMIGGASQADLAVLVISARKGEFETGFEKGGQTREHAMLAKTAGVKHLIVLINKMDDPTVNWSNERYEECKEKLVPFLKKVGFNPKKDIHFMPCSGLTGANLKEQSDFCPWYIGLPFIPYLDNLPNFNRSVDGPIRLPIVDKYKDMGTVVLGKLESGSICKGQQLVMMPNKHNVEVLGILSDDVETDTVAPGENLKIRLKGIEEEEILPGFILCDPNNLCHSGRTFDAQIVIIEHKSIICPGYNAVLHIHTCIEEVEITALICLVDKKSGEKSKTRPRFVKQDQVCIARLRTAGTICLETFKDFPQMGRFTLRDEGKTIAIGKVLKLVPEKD
T6 sequence (Q96SW2 whole entry): as the sequence (Q96SW2 whole entry) above
T6 sequence (Q16531 whole entry partner): as the sequence (Q16531 whole entry partner) above

[7] = biological target: T7, human Cereblon WT GST-tagged protein (Homo sapiens, UniProt Q96SW2); assay: CRBN-binding affinity by HTRF (CEREBLON BINDING kit); details: HTRF inhibitory activity, CEREBLON BINDING kit; read-out: HTRF IC50
T7 construct: purchased CISBIO 64BDCRBNPEH
T7 sequence (Q96SW2 whole entry): as the sequence (Q96SW2 whole entry) above

[8] = test system: Jurkat; assay: Tumor cell proliferation inhibition (CellTiter-Meiluncell Luminescent Cell Viability Assay), Jurkat; details: Homo sapiens, read-out: inhibitory activity (IC50, nM) against tumor cells proliferation, Jurkat
[9] = test system: Human acute T lymphocytic leukemia cells (Molt-4); assay: Tumor cell proliferation inhibition (CellTiter-Meiluncell Luminescent Cell Viability Assay), Molt-4; details: MOLT-4, read-out: inhibitory activity (IC50, nM) against tumor cells proliferation, Molt-4
[10] = test system: MV-4-11; assay: Tumor cell proliferation inhibition (CellTiter-Meiluncell Luminescent Cell Viability Assay), MV-4-11; details: Homo sapiens, MV4-11, read-out: inhibitory activity (IC50, nM) against tumor cells proliferation, MV-4-11
Protocol: (§1) The tumor cells used herein were cultured in a cell culture medium listed in table 2 at 37°C in an incubator with 5% CO2. Prior to experimentation, all cell lines used were correctly identified by STR profiling, and tested negative for mycoplasma contamination using a mycoplasma detection kit through routine screenings.
On the following day, the test compounds of the present disclosure were subjected to serial dilution. […] Subsequently, 0.5 µL of the test compound dilution was transferred into the 96-well plate containing the cells, with each well containing 100 µL of cell culture medium. […] Into the 96-well plate, the diluted test compounds and corresponding detection reagents were added, resulting in final test compound concentrations of 500 nM and 10 nM, respectively.
(§2) After the cells were treated with the compounds of the present disclosure for a specified period (the treatment durations were shown in Table 3), the cell viability assay reagent was added to the culture medium according to the kit's instructions to determine cell viability. […] All controls were treated using the same procedure as the compounds of the present disclosure. The growth inhibition curves for the compounds of the present disclosure were plotted using Prism GraphPad software, and the IC50 values were calculated therefrom.

[11] = test system: CCRF-CEM; assay: Tumor cell proliferation inhibition (CellTiter-Meiluncell Luminescent Cell Viability Assay), CCRF-CEM; details: Homo sapiens, read-out: inhibitory activity (IC50, nM) against tumor cells proliferation, CCRF-CEM
Protocol: as §1
On the following day, the test compounds of the present disclosure were subjected to serial dilution. […] Subsequently, 0.5 µL of the test compound dilution was transferred into the 96-well plate containing the cells, with each well containing 100 µL of cell culture medium. […] Into the 96-well plate, the diluted test compounds and corresponding detection reagents were added, resulting in final test compound concentrations of 500 nM and 10 nM, respectively. The experimental procedure is described below using the diluted 2 µM test compound as an example.
as §2

T1 sequence (P30291 whole entry): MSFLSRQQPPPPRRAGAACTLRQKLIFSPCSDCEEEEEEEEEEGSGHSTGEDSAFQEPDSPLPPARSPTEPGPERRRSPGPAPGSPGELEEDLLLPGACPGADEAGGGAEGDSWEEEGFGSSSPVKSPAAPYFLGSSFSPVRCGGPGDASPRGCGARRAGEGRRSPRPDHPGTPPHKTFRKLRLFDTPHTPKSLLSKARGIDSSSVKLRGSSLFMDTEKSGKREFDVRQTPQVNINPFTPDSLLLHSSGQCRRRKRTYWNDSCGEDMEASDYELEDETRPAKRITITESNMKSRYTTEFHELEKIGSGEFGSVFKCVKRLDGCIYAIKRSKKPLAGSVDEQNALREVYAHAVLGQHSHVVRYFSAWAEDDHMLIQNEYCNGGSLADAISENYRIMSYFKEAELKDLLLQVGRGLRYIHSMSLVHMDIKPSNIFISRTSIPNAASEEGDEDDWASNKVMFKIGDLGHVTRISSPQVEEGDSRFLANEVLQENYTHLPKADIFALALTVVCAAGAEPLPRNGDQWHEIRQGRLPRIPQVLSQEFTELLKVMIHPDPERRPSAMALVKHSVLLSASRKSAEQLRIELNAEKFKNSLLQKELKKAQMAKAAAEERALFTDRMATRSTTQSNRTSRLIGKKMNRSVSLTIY
T1 sequence (Q96SW2 whole entry): as the sequence (Q96SW2 whole entry) above
T1 sequence (Q16531 whole entry partner): as the sequence (Q16531 whole entry partner) above

| SMILES | Weel substrate protein remaining % [1] | IKZF 1 substrate protein remaining % [2] | IKZF2 substrate protein remaining % [3] | IKZF3 substrate protein remaining % [4] | CK1a substrate protein remaining % [5] | GSPT1 substrate protein remaining % [6] | IC50 [7] [nM] | IC50 [8] [nM] | IC50 [9] [nM] | IC50 [10] [nM] | IC50 [11] [nM] |
| --- | --- | --- | --- | --- | --- | --- | --- | --- | --- | --- | --- |
| O=C1CCC(N2C(=O)c3ccc(CN4CC=C(c5cncc(Cl)c5Cl)CC4)cc3C2=O)C(=O)N1 (stereo not shown) [GT-06609, 5-((4,5-dichloro-3',6'-dihydro-[3,4'-bipyridin]-1'(2'H)-yl)methyl)-2-(2,6-dioxopiperidin-3-yl)isoindoline-1,3-dione] | A (0% ≤ substrate protein remaining % ≤ 80%) | A (0% ≤ substrate protein remaining % ≤ 80%) | A (0% ≤ substrate protein remaining % ≤ 80%) | A (0% ≤ substrate protein remaining % ≤ 80%) | B (80%< substrate protein remaining %≤ 100%) | A (0% ≤ substrate protein remaining % ≤ 80%) | 500 to 1000 | 100 to 500 | 100 to 500 | 100 to 500 | 100 to 500 |
| O=C1CCC(N2C(=O)c3ccc(CN4CC=C(c5cncc(Cl)c5)CC4)cc3C2=O)C(=O)N1 (stereo not shown) [GT-06611, 5-((5-chloro-3',6'-dihydro-[3,4'-bipyridin]-1'(2'H)-yl)methyl)-2-(2,6-dioxopiperidin-3-yl)isoindoline-1,3-dione] | A (0% ≤ substrate protein remaining % ≤ 80%) | A (0% ≤ substrate protein remaining % ≤ 80%) | A (0% ≤ substrate protein remaining % ≤ 80%) | A (0% ≤ substrate protein remaining % ≤ 80%) | A (0% ≤ substrate protein remaining % ≤ 80%) | A (0% ≤ substrate protein remaining % ≤ 80%) |  |  | 500 to 1000 | 100 to 500 | 100 to 500 |
| O=C1CCC(N2C(=O)c3ccc(CN4CC=C(c5ncccc5F)CC4)cc3C2=O)C(=O)N1 (stereo not shown) [GT-06612, 2-(2,6-dioxopiperidin-3-yl)-5-((3-fluoro-3',6'-dihydro-[2,4'-bipyridin]-1'(2'H)-yl)methyl)isoindoline-1,3-dione] | A (0% ≤ substrate protein remaining % ≤ 80%) | A (0% ≤ substrate protein remaining % ≤ 80%) | A (0% ≤ substrate protein remaining % ≤ 80%) | A (0% ≤ substrate protein remaining % ≤ 80%) | A (0% ≤ substrate protein remaining % ≤ 80%) | A (0% ≤ substrate protein remaining % ≤ 80%) |  |  | 500 to 1000 | 500 to 1000 | 500 to 1000 |
| O=C1CCC(N2C(=O)c3ccc(CN4CC=C(c5ccnc(Cl)c5Cl)CC4)cc3C2=O)C(=O)N1 (stereo not shown) [GT-06616, 5-((2',3'-dichloro-3,6-dihydro-[4,4'-bipyridin]-1(2H)-yl)methyl)-2-(2,6-dioxopiperidin-3-yl)isoindoline-1,3-dione] | A (0% ≤ substrate protein remaining % ≤ 80%) | A (0% ≤ substrate protein remaining % ≤ 80%) | B (80%< substrate protein remaining %≤ 100%) | A (0% ≤ substrate protein remaining % ≤ 80%) | A (0% ≤ substrate protein remaining % ≤ 80%) | A (0% ≤ substrate protein remaining % ≤ 80%) | 1500 to 1900 |  | 500 to 1000 | 100 to 500 | 500 to 1000 |
| Cc1nc(C2=CCN(Cc3ccc4c(c3)C(=O)N(C3CCC(=O)NC3=O)C4=O)CC2)c2ccsc2n1 (stereo not shown) [GT-06678, 2-(2,6-dioxopiperidin-3-yl)-5-((4-(2-methylthieno[2,3-d]pyrimidin-4-yl)-3,6-dihydropyridin-1(2H)-yl)methyl)isoindoline-1,3-dione] | A (0% ≤ substrate protein remaining % ≤ 80%) | A (0% ≤ substrate protein remaining % ≤ 80%) | B (80%< substrate protein remaining %≤ 100%) | A (0% ≤ substrate protein remaining % ≤ 80%) | A (0% ≤ substrate protein remaining % ≤ 80%) | A (0% ≤ substrate protein remaining % ≤ 80%) |  |  | 100 to 500 | 100 to 500 | 100 to 500 |
| O=C1CCC(N2C(=O)c3ccc(CN4CC=C(c5ncnc6sc7c(c56)CCC7)CC4)cc3C2=O)C(=O)N1 (stereo not shown) [GT-06681, 5-((4-(6,7-dihydro-5H-cyclopenta[4,5]thieno[2,3-d]pyrimidin-4-yl)-3,6-dihydropyridin-1(2H)-yl)methyl)-2-(2,6-dioxopiperidin-3-yl)isoindoline-1,3-dione] | A (0% ≤ substrate protein remaining % ≤ 80%) | A (0% ≤ substrate protein remaining % ≤ 80%) | A (0% ≤ substrate protein remaining % ≤ 80%) | A (0% ≤ substrate protein remaining % ≤ 80%) | B (80%< substrate protein remaining %≤ 100%) | A (0% ≤ substrate protein remaining % ≤ 80%) | 1500 to 1900 |  |  | 500 to 1000 |  |
| O=C1CCC(N2C(=O)c3ccc(CN4CC=C(c5ncc6ccsc6n5)CC4)cc3C2=O)C(=O)N1 (stereo not shown) [GT-06683, 2-(2,6-dioxopiperidin-3-yl)-5-((4-(thieno[2,3-d]pyrimidin-2-yl)-3,6-dihydropyridin-1(2H)-yl)methyl)isoindoline-1,3-dione] | A (0% ≤ substrate protein remaining % ≤ 80%) | A (0% ≤ substrate protein remaining % ≤ 80%) | A (0% ≤ substrate protein remaining % ≤ 80%) | A (0% ≤ substrate protein remaining % ≤ 80%) | B (80%< substrate protein remaining %≤ 100%) | A (0% ≤ substrate protein remaining % ≤ 80%) |  |  | 500 to 1000 | 100 to 500 | 500 to 1000 |
| O=C1CCC(N2C(=O)c3ccc(CN4C5CCC4CN(c4cccc(Cl)c4Cl)C5)cc3C2=O)C(=O)N1 (stereo not shown) [GT-06694, 5-((3-(2,3-dichlorophenyl)-3,8-diazabicyclo[3.2.1]octan-8-yl)methyl)-2-(2,6-dioxopiperidin-3-yl)isoindoline-1,3-dione] | A (0% ≤ substrate protein remaining % ≤ 80%) | B (80%< substrate protein remaining %≤ 100%) | A (0% ≤ substrate protein remaining % ≤ 80%) | B (80%< substrate protein remaining %≤ 100%) | B (80%< substrate protein remaining %≤ 100%) | A (0% ≤ substrate protein remaining % ≤ 80%) |  |  | 500 to 1000 | 100 to 500 | 500 to 1000 |
| O=C1CCC(N2C(=O)c3ccc(CN4CC=C(c5c[nH]c6ncccc56)CC4)cc3C2=O)C(=O)N1 (stereo not shown) [GT-06706, 5-((4-(1H-pyrrolo[2,3-b]pyridin-3-yl)-3,6-dihydropyridin-1(2H)-yl)methyl)-2-(2,6-dioxopiperidin-3-yl)isoindoline-1,3-dione] | A (0% ≤ substrate protein remaining % ≤ 80%) | A (0% ≤ substrate protein remaining % ≤ 80%) | A (0% ≤ substrate protein remaining % ≤ 80%) | A (0% ≤ substrate protein remaining % ≤ 80%) | A (0% ≤ substrate protein remaining % ≤ 80%) | A (0% ≤ substrate protein remaining % ≤ 80%) |  |  | 500 to 1000 | 100 to 500 | 500 to 1000 |
| O=C1CCC(N2C(=O)c3ccc(CN4CCN(c5nc(N6CCOCC6)c6sccc6n5)CC4)cc3C2=O)C(=O)N1 (stereo not shown) [GT-06718, 2-(2,6-dioxopiperidin-3-yl)-5-((4-(4-morpholinothieno[3,2-d]pyrimidin-2-yl)piperazin-1-yl)methyl)isoindoline-1,3-dione] | B (80%< substrate protein remaining %≤ 100%) | B (80%< substrate protein remaining %≤ 100%) | B (80%< substrate protein remaining %≤ 100%) | B (80%< substrate protein remaining %≤ 100%) | B (80%< substrate protein remaining %≤ 100%) | A (0% ≤ substrate protein remaining % ≤ 80%) | 1000 to 1500 |  |  | 100 to 500 |  |
